Like-named read-outs stand apart in the source and are kept apart here.
Experiments:
[1] = cited from earlier work
[2] = attributed to anti-EGFR/HER1 activity of the drug; cited from earlier work
[3] = system: HER2 positive metastatic CRC (wild-type KRAS exon 2); conditions: HERACLES patients, previous treatment with cetuximab or panitumumab; cited from earlier work
[4] = system: Calu-3 NSCLC xenograft model; assay: Calu-3 NSCLC xenograft model, tumor growth inhibition; assay type: in vivo, Mice; conditions: study day 28, tucatinib 50 mg/kg orally twice per day, trastuzumab 20 mg/kg IP once every three days, from study day 7
Description: (§1) The term “tumor growth inhibition (TGI) index” refers to a value used to represent the degree to which an agent (e.g., tucatinib, an anti-HER2 antibody, or a combination thereof) inhibits the growth of a tumor when compared to an untreated control. The TGI index is calculated for a particular time point (e.g., a specific number of days into an experiment or clinical trial) according to the following formula:
(§2) [formula] where “Tx Day 0” denotes the first day that treatment is administered (i.e., the first day that an experimental therapy or a control therapy (e.g., vehicle only) is administered) and “Tx Day X” denotes X number of days after Day 0.
(§3) For the Calu-3 study, tucatinib was administered orally at a dose of 50 mg/kg twice per day for 21 days, beginning on study day 7. […] A vehicle-only group was included as a negative control.

NCI-H2170 cells = assay: Response of NCI-H2170 cells in vitro; assay type: cell-based; conditions: previously demonstrated
CTG-0121 CRC PDX model = assay: CTG-0121 CRC PDX model, tumor growth inhibition; assay type: in vivo, Mice; conditions: study day 29, tucatinib 50 mg/kg orally twice per day, trastuzumab 20 mg/kg IP once every three days
Description: as §1, §2
(§4) Tucatinib was administered orally at a dose of 50 mg/kg twice per day for 28 days (study days 0-27). […] A vehicle-only group was included as a negative control.

[5] = system: CTG-0927 HER2 positive cholangiocarcinoma PDX model; assay: CTG-0927 cholangiocarcinoma PDX model, tumor growth inhibition; assay type: in vivo, Mice; conditions: study day 28, tucatinib 50 mg/kg orally twice per day, trastuzumab 20 mg/kg IP once every three days
Description: as §1, §2, §4

[6] = system: CTG-0138 esophageal cancer PDX model; assay: CTG-0138 esophageal cancer PDX model, tumor growth inhibition; assay type: in vivo, Mice; conditions: study day 30, tucatinib 50 mg/kg orally twice per day, trastuzumab 20 mg/kg IP once every three days
Description: as §1, §2, §4

[7] = system: GXA 3054 gastric cancer PDX model; assay: GXA 3054 gastric cancer PDX model, tumor growth inhibition; assay type: in vivo, Mice; conditions: study day 17, tucatinib 50 mg/kg orally twice per day, trastuzumab 20 mg/kg IP once every three days
Description: as §1, §2, §4

[8] = system: CTG-0137 esophageal cancer PDX model; assay: CTG-0137 esophageal cancer PDX model, tumor growth inhibition; assay type: in vivo, Mice; conditions: study day 15, tucatinib 50 mg/kg orally twice per day, trastuzumab 20 mg/kg IP once every three days
Description: as §1, §2, §4

[9] = system: NCI-H2170 NSCLC xenograft model; assay: NCI-H2170 NSCLC xenograft model, tumor growth inhibition; assay type: in vivo, Mice; conditions: study day 39, tucatinib 50 mg/kg orally twice per day, trastuzumab 20 mg/kg IP twice per week, from study day 18
Description: as §1, §2, §3
For the NCI-H2170 study, tucatinib was administered orally at a dose of 50 mg/kg twice per day for 21 days, beginning on study day 18. […] A vehicle-only group was included as a negative control.

[10] = system: GXA 3039 gastric cancer PDX model; assay: GXA 3039 gastric cancer PDX model, tumor growth inhibition; assay type: in vivo, Mice; conditions: study day 29, tucatinib 50 mg/kg orally twice per day, trastuzumab 20 mg/kg IP once every three days
Description: as §1, §2, §4

[11] = system: GXA 3038 gastric cancer PDX model; assay: GXA 3038 gastric cancer PDX model, tumor growth inhibition; assay type: in vivo, Mice; conditions: study day 28, tucatinib 50 mg/kg orally twice per day, trastuzumab 20 mg/kg IP once every three days
Description: as §1, §2, §4

CTG-0784 CRC PDX model = assay: CTG-0784 CRC PDX model, tumor growth inhibition; assay type: in vivo, Mice; conditions: study day 29, tucatinib 50 mg/kg orally twice per day, trastuzumab 20 mg/kg IP once every three days
Description: as §1, §2, §4

CTG-0383 CRC PDX model = assay: CTG-0383 CRC PDX model, tumor growth inhibition; assay type: in vivo, Mice; conditions: study day 29, tucatinib 50 mg/kg orally twice per day, trastuzumab 20 mg/kg IP once every three days
Description: as §1, §2, §4

[12] = Clinical safety observations in patients; assay type: in vivo, human; conditions: patients on tucatinib studies
Text: Cardiac function is therefore monitored closely.
Monitoring of liver function tests is required for any patient taking tucatinib.
Patients with brain metastases are at risk for occurrence of AEs due to the presence of CNS lesions, progression of disease and toxicities potentially related to study treatment. On occasion, treatment of brain metastases with systemic or radiation therapy has been associated with localized edema thought to be due to treatment effect and not tumor progression. […] The patient's symptoms responded rapidly and completely to systemic corticosteroids. It was not known if this patient's symptoms were due to local progression or treatment-related toxicity. […] The patient was taken for surgical resection, and found to have no viable tumor. The resected lesion was thought to represent treatment-related necrosis.

Calu-3 cells = assay: Response of Calu-3 cells in vitro; assay type: cell-based; conditions: previously demonstrated
[13] = Table 11, strong inhibitors or inducers of CYP3A4
[14] = Table 10, strong inhibitors and inducer of CYP2C8

For `C#C[C@]1(O)CC[C@H]2[C@@H]3CCC4=Cc5oncc5C[C@]4(C)[C@H]3CC[C@@]21C` [Danazol], the “Elimination Half-life” value [1, 13] is given as 24 to 26 h.

In the case of `CC(C)(O)c1ccccc1CC[C@@H](SCC1(CC(=O)O)CC1)c1cccc(/C=C/c2ccc3ccc(Cl)cc3n2)c1` [Montelukast], the “Elimination Half-life” value [1, 14] is given as 3 to 6 h (drug insert).

For `COc1cc(Cc2cnc(N)nc2N)cc(OC)c1OC` [Trimethoprim], the “Elimination Half-life” value [1, 14] is given as 8 to 10 h.

In the case of `CC[C@H]1OC(=O)[C@H](C)[C@@H](O[C@H]2C[C@@](C)(OC)[C@@H](O)[C@H](C)O2)[C@H](C)[C@@H](O[C@@H]2O[C@H](C)C[C@H](N(C)C)[C@H]2O)[C@](C)(OC)C[C@@H](C)C(=O)[C@H](C)[C@@H](O)[C@]1(C)O` [Clarithromycin], the “Elimination Half-life” value [1, 13] is given as 3 to 7 h.

In the case of `CC(=O)N1CCN(c2ccc(OCC3COC(Cn4ccnc4)(c4ccc(Cl)cc4Cl)O3)cc2)CC1` (stereo not drawn) [ketoconazole (systemic), ketoconazole], the “Elimination Half-life” value [1, 13] is listed as 2 to 8 h.

In the case of `CCc1nn(CCCN2CCN(c3cccc(Cl)c3)CC2)c(=O)n1CCOc1ccccc1` [Nefazodone], the “Elimination Half-life” value [1, 13] is listed as 2 to 4 h.

In the case of `CS(=O)(=O)CCNCc1ccc(-c2ccc3ncnc(Nc4ccc(OCc5cccc(F)c5)c(Cl)c4)c3c2)o1` [lapatinib], the Toxicities [2] is given as “rash, diarrhea, and fatigue”.

For `NC(=O)N1c2ccccc2C=Cc2ccccc21` [Carbamazepine], the “Elimination Half-life” value [1, 13] is given as 25 to 65 h.

In the case of `CC[C@H]1OC(=O)[C@H](C)C(=O)[C@H](C)[C@@H](O[C@@H]2O[C@H](C)C[C@H](N(C)C)[C@H]2O)[C@](C)(OC)C[C@@H](C)C(=O)[C@H](C)[C@H]2N(CCCCn3cnc(-c4cccnc4)c3)C(=O)O[C@]12C` [Telithromycin], the “Elimination Half-life” value [1, 13] is listed as 10 h.

In the case of `O=C1NC(=O)C(c2ccccc2)(c2ccccc2)N1` [Phenytoin], the “Elimination Half-life” value [1, 13] is listed as 7 to 42 h.

For panitumumab, the “ORR on previous treatment” value [3] is listed as 0%.

For `CN(CCOc1ccc(CC2SC(=O)NC2=O)cc1)c1ccccn1` (stereo not drawn) [Rosiglitazone], the “Elimination Half-life” value [1, 14] is given as 16 to 24 h.

In the case of `CCC(C)n1ncn(-c2ccc(N3CCN(c4ccc(OCC5COC(Cn6cncn6)(c6ccc(Cl)cc6Cl)O5)cc4)CC3)cc2)c1=O` (stereo not drawn) [Itraconazole], the “Elimination Half-life” value ([1]; Table 11, single dose) is given as 21 h and the “Elimination Half-life” value ([1]; Table 11, steady state) is given as 64 h.

In the case of `C[C@@H](c1ncncc1F)[C@](O)(Cn1cncn1)c1ccc(F)cc1F` [Voriconazole], the “Elimination Half-life (hours)” value [1, 13] is listed as “Dose dependent”.

For `CCc1ccc(CCOc2ccc(CC3SC(=O)NC3=O)cc2)nc1` (stereo not drawn) [Pioglitazone], the “Elimination Half-life” value [1, 14] is given as 3 to 7 h.

In the case of `Cc1ccc(C)c(OCCCC(C)(C)C(=O)O)c1` [Gemfibrozil], the “Elimination Half-life” value [1, 14] is listed as 1 to 2 h.

For `CC[C@H]1OC(=O)[C@H](C)[C@@H](O[C@H]2C[C@@](C)(OC)[C@@H](O)[C@H](C)O2)[C@H](C)[C@@H](O[C@@H]2O[C@H](C)C[C@H](N(C)C)[C@H]2O)[C@](C)(O)C[C@@H](C)C(=O)[C@H](C)[C@@H](O)[C@]1(C)O` [Erythromycin], the “Elimination Half-life” value [1, 13] is given as 2 h.

In the case of `O=c1c(O)c(-c2ccc(O)c(O)c2)oc2cc(O)cc(O)c12` [Quercetin], the “Elimination Half-life” value [1, 14] is listed as less than 2 h.

With `Cc1cc(Nc2ncnc3ccc(NC4=NC(C)(C)CO4)cc23)ccc1Oc1ccn2ncnc2c1` [Tucatinib, tucatinib] the “Observed TGI (%)” value [4] was 63%, the Response in vitro (NCI-H2170 cells) was “good responses” and the “Observed TGI (%)” value (CTG-0121 CRC PDX model) was 104%. For the same molecule, the “Observed TGI (%)” value [5] was 48%, the “Observed TGI (%)” value [6] was 69% and the “Observed TGI (%)” value [7] was 65%. The “Observed TGI (%)” value [8] was 49%, the “Observed TGI (%)” value [9] was 91% and the “Observed TGI (%)” value [10] was 48%. The “Observed TGI (%)” value [11] was 110%, the “Observed TGI (%)” value (CTG-0784 CRC PDX model) was 50% and the “Observed TGI (%)” value (CTG-0383 CRC PDX model) was 117%. For the same molecule, the “Elevation of liver function tests” value [12] was “Grade 3 and 4 elevation of LFTs have been seen in some patients” and the Response in vitro (Calu-3 cells) was “good responses”.

Source: patent US11666572B2, “Treatment of HER2 positive cancers” (Seagen Inc., priority 2017, dated 2023)
